This passage reports inhibition and IC50 results from patent US8217060B2, “Benzimidazole derivatives useful as TRP M8 receptor modulators” (Janssen Pharmaceutica, NV, priority 2009, dated 2012).

The target of this experiment is T1, canine TRPM8 (Canis lupus familiaris, UniProt Q1A7N1).
T1 construct: expressed in transfected cells
Description: In Vitro Canine TRPM8 Functional Assay (icilin-induced intracellular Ca2+ fluorescence, FLIPR/FDSS). Format: cell-based. The note with it: HEK293 cells stably expressing canine TRPM8; for inhibition at 0.2 µM: 0.2 μM test compound, icilin challenge; for IC50: icilin challenge (~80% maximal response), eight-point dose-response. The protocol: The functional activity of representative compounds of the formula (I) of the present invention were measured by measuring changes in intracellular calcium concentration using a Ca^2+-sensitive fluorescent dye. The changes in fluorescent signal were monitored by a fluorescence plate reader, either a FLIPR™ (Molecular Devices) or FDSS (Hamamatsu).
HEK293 cells stably expressing canine TRPM8 were routinely grown as monolayers in Dulbecco's minimum essential medium supplemented with 10% FBS, 2 mM L-glutamine, 100 units/mL penicillin, 100 ug/mL streptomycin and 400 μg/mL G418. Cells were maintained in 5% CO2 at 37° C. At 24 hrs prior to assay, cells were seeded in black wall, clear-base poly-D-lysine coated 384-well plates (BD Biosciences, NJ, USA) at a density of 5,000 cells per well in culture medium and grown overnight in 5% CO2 at 37° C. On assay day, growth media was removed and cells were loaded with Calcium 3 Dye (Molecular Devices) for 35 min at 37° C., under 5% CO2 and then for 25 min at room temperature and atmosphere. Subsequently, cells were tested for agonist-induced increases in intracellular Ca^2+ levels using FLIPR™ or FDSS. Cells were challenged with compounds of the formula (I) (at varying concentrations) and intracellular Ca^2+ was measured for 5 min prior to the addition of icilin to all wells to achieve a final concentration that produces approximately an 80% maximal response.
Basal FI was subtracted prior to normalizing data to percent of maximal response. Curves were generated using the average of quadruplicate wells for each data point, were analyzed using nonlinear regression of either sigmoidal dose response or sigmoidal dose response (variable slope). Finally, the EC50 and IC50 values were calculated with the best-fit dose curve determined by GraphPad Prism

Molecules are shown by their SMILES. Counter-ions that a name gives are not always drawn.

T1 sequence (Q1A7N1 1-1104): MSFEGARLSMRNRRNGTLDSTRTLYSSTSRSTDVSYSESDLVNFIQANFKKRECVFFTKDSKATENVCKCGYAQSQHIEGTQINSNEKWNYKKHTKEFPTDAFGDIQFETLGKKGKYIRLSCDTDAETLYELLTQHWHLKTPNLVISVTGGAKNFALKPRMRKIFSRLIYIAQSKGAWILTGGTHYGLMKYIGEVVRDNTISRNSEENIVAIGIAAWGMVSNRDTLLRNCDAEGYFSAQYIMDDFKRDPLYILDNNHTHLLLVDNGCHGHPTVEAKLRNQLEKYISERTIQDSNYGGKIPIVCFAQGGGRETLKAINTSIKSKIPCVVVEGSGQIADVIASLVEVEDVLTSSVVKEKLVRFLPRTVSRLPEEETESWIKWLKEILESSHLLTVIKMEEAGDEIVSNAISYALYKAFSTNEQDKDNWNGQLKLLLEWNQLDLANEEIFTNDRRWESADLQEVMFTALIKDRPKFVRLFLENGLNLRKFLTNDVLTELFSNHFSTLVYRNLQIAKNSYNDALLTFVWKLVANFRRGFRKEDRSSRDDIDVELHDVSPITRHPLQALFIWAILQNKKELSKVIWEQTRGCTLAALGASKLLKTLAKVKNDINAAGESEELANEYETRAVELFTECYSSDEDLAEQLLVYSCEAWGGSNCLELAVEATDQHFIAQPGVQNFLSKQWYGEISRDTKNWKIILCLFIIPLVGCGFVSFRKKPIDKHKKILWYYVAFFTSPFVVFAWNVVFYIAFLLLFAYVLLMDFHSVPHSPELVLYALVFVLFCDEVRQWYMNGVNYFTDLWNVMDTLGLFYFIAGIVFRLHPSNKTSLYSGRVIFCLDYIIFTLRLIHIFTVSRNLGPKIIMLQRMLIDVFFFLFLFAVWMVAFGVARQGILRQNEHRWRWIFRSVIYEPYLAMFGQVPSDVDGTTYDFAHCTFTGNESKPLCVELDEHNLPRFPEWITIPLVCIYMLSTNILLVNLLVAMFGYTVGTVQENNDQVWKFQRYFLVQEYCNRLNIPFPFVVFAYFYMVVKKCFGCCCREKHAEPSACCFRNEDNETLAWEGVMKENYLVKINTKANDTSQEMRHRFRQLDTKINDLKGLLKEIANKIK

One may read the inhibition as the change of the read-out against control, counted positive when it falls. The IC50 is the concentration needed to halve the response being measured. A lower IC50 goes with greater potency in that assay. In the case of `FC1(F)CCC(C=Cc2nc3cc(-c4ccccc4Cl)ccc3[nH]2)CC1` [Compound 38, 5-(2-Chloro-phenyl)-2-[2-(4,4-difluoro-cyclohexyl)-vinyl]-1H-benzoimidazole hydrochloride salt], the inhibition at 0.2 µM was 101% and the IC50 was found to be 3.5 nM.

In the case of `Fc1ccccc1-c1ccc2[nH]c(C=CC3CCC(F)(F)CC3)nc2c1` [Compound 39, 2-[2-(4,4-Difluoro-cyclohexyl)-vinyl]-5-(2-fluoro-phenyl)-1H-benzoimidazole hydrochloride salt], the inhibition at 0.2 µM amounted to 101% and the IC50 amounted to 9 nM.

Regarding `COc1cccc(OC)c1-c1ccc2[nH]c(C=CC3CC=C(F)CC3)nc2c1` (centres unmarked) [Compound 40, 5-(2,6-Dimethoxy-phenyl)-2-[2-(4-fluoro-cyclohex-3-enyl)-vinyl]-1H-benzoimidazole hydrochloride salt], the inhibition at 0.2 µM came out at 101% and the IC50 worked out at 2 nM.

As for `COc1cccc(F)c1-c1ccc2[nH]c(C=CC3CC=C(F)CC3)nc2c1` (centres unmarked) [Compound 41, 2-[2-(4-Fluoro-cyclohex-3-enyl)-vinyl]-5-(2-fluoro-6-methoxy-phenyl)-1H-benzoimidazole hydrochloride salt], the inhibition at 0.2 µM was found to be 100% and the IC50 stood at 6 nM.

Consider `Fc1cccc(C(F)(F)F)c1-c1ccc2[nH]c(C=CC3CCC(F)(F)CC3)nc2c1` [Compound 42, 2-[2-(4,4-Difluoro-cyclohexyl)-vinyl]-5-(2-fluoro-6-trifluoromethyl-phenyl)-1H-benzoimidazole hydrochloride salt], for which the inhibition at 0.2 µM was 101% and the IC50 is 3 nM.

`COc1cccc(OC)c1-c1ccc2[nH]c(C=CC3CCC(F)(F)CC3)nc2c1` [Compound 43, 2-[2-(4,4-Difluoro-cyclohexyl)-vinyl]-5-(2,6-dimethoxy-phenyl)-1H-benzoimidazole hydrochloride salt]: the inhibition at 0.2 µM is 100% and the IC50 amounted to 2 nM.

On to `COc1cccc(F)c1-c1ccc2[nH]c(C=CC3CCC(F)(F)CC3)nc2c1` [Compound 44, 2-[2-(4,4-Difluoro-cyclohexyl)-vinyl]-5-(2-fluoro-6-methoxy-phenyl)-1H-benzoimidazole hydrochloride salt], for which the inhibition at 0.2 µM came out at 101% and the IC50 worked out at 3 nM.

`COc1ccc(F)cc1-c1ccc2[nH]c(C=CC3CCC(F)(F)CC3)nc2c1` [Compound 45, 2-[2-(4,4-Difluoro-cyclohexyl)-vinyl]-5-(5-fluoro-2-methoxy-phenyl)-1H-benzoimidazole hydrochloride salt]: the inhibition at 0.2 µM is 101% and the midpoint of inhibition, the IC50, lay at 7 nM.

In the case of `FC1=CCC(C=Cc2nc3cc(-c4ccccc4C(F)(F)F)cc(C(F)(F)F)c3[nH]2)CC1` (centres unmarked) [Compound 46, 2-[2-(4-Fluoro-cyclohex-3-enyl)-vinyl]-7-trifluoromethyl-5-(2-trifluoromethyl-phenyl)-1H-benzoimidazole hydrochloride salt], the inhibition at 0.2 µM was determined as 99% and the half-maximal inhibitory concentration (IC50) stood at 4 nM.

In the case of `FC1(F)CCC(/C=C/c2nc3cc(-c4ccccc4C(F)(F)F)cc(C(F)(F)F)c3[nH]2)CC1` [Compound 47, 2-[2-(4,4-Difluoro-cyclohexyl)-vinyl]-7-trifluoromethyl-5-(2-trifluoromethyl-phenyl)-1H-benzoimidazole hydrochloride salt], the inhibition at 0.2 µM turned out to be 99% and the IC50 amounted to 6.3 nM.

In the case of `Cc1cc(-c2ccccc2OC(F)(F)F)cc2nc(C=CC3CCCCC3)[nH]c12` [Compound 48, 2-(2-Cyclohexyl-vinyl)-7-methyl-5-(2-trifluoromethoxy-phenyl)-1H-benzoimidazole hydrochloride salt], the inhibition at 0.2 µM was 99% and the IC50 was 6 nM.

Take `Cc1cc(-c2ccccc2C(F)(F)F)cc2nc(C=CC3CCCCC3)[nH]c12` [Compound 49, 2-(2-Cyclohexyl-vinyl)-7-methyl-5-(2-trifluoromethyl-phenyl)-1H-benzoimidazole hydrochloride salt]: the inhibition at 0.2 µM is 99% and the IC50 was found to be 3 nM.

Turning to `FC(F)(F)c1ccccc1-c1ccc2[nH]c(/C=C/C3CCSCC3)nc2c1` [Compound 51, (E)-2-[2-(Tetrahydro-thiopyran-4-yl)-vinyl]-5-(2-trifluoromethyl-phenyl)-1H-benzimidazole], the inhibition at 0.2 µM amounted to 95% and it took 31 nM to reach half-maximal inhibition (IC50).

As to `Fc1ccccc1-c1ccc2[nH]c(/C=C/C3CCOCC3)nc2c1` [Compound 52, (E)-5-(2-Fluoro-phenyl)-2-[2-(tetrahydro-pyran-4-yl)-vinyl]-1H-benzimidazole trifluoroacetic acid salt], the inhibition at 0.2 µM came to 91% and inhibition was half-maximal at 70 nM (IC50).

As for `Cc1cc(-c2ccccc2C(F)(F)F)cc2nc(/C=C/C3CCOCC3)[nH]c12` [Compound 53, (E)-7-Methyl-2-[2-(tetrahydro-pyran-4-yl)-vinyl]-5-(2-trifluoromethyl-phenyl)-1H-benzimidazole hydrochloride], the inhibition at 0.2 µM came out at 102% and the IC50 was found to be 8 nM.

As to `FC(F)(F)c1cc(-c2ccc3[nH]c(/C=C/C4CCOCC4)nc3c2)ccn1` [Compound 54, (E)-2-[2-(Tetrahydro-pyran-4-yl)-vinyl]-5-(2-trifluoromethyl-pyridin-4-yl)-1H-benzimidazole hydrochloride], the inhibition at 0.2 µM turned out to be 1%.

On to `FC(F)(F)c1ncccc1-c1ccc2[nH]c(/C=C/C3CCCCC3)nc2c1` [Compound 56, (E)-2-(2-Cyclohexyl-vinyl)-5-(2-trifluoromethyl-pyridin-3-yl)-1H-benzimidazole hydrochloride], for which the inhibition at 0.2 µM came to 99% and the IC50 was 11 nM.

Consider `Fc1cccc(C(F)(F)F)c1-c1ccc2[nH]c(/C=C/C3CCCCC3)nc2c1` [Compound 57, (E)-2-(2-Cyclohexyl-vinyl)-5-(2-fluoro-6-trifluoromethyl-phenyl)-1H-benzimidazole], for which the inhibition at 0.2 µM stood at 101% and the IC50 was determined as 8 nM.

As for `FC(F)(F)c1cccnc1-c1ccc2[nH]c(/C=C/C3CCCCC3)nc2c1` [Compound 60, (E)-2-(2-Cyclohexyl-vinyl)-5-(3-trifluoromethyl-pyridin-2-yl)-1H-benzimidazole], the inhibition at 0.2 µM came to 92% and the 50% inhibitory concentration (IC50) stood at 45 nM.

Take `Fc1cccc(F)c1-c1ccc2[nH]c(/C=C/C3CCOCC3)nc2c1` [Compound 61, (E)-5-(2,6-Difluoro-phenyl)-2[2-(tetrahydro-pyran-4-yl)-vinyl]-1H-benzoimidazole hydrochloride]: the inhibition at 0.2 µM turned out to be 97% and the IC50 was 32 nM.

On to `FC(F)(F)c1cccnc1-c1ccc2[nH]c(/C=C/C3CCOCC3)nc2c1` [Compound 62, (E)-2-[2-(Tetrahydro-pyran-4-yl)-vinyl]-5-(3-trifluoromethyl-pyridin-2-yl)-1H-benzoimidazole hydrochloride], for which the inhibition at 0.2 µM amounted to 92% and the IC50 is 21 nM.

Consider `Cc1cc(-c2ccccc2C(F)(F)F)cc2nc(/C=C/C3CCC(C)(C)CC3)[nH]c12` [Compound 63, (E)-2-[2-(4,4-Dimethyl-cyclohexyl)-vinyl]-7-methyl-5-(2-trifluoromethyl-phenyl)-1H-benzoimidazole hydrochloride], for which the inhibition at 0.2 µM is 97% and the half-inhibitory concentration (IC50) was 12 nM.

`CC1(C)CCC(/C=C/c2nc3cc(-c4ccccc4C(F)(F)F)ccc3[nH]2)CC1` [Compound 64, (E)-2-[2-(4,4-Dimethyl-cyclohexyl)-vinyl]-5-(2-trifluoromethyl-phenyl)-1H-benzoimidazole hydrochloride]: the inhibition at 0.2 µM is 98% and inhibition was half-maximal at 23 nM (IC50).

For the compound `CC1(C)CCC(/C=C/c2nc3cc(-c4c(F)cccc4F)ccc3[nH]2)CC1` [Compound 65, (E)-5-(2,6-Difluoro-phenyl)-2-[2-(4,4-dimethyl-cyclohexyl)-vinyl]-1H-benzoimidazole trifluoroacetic acid salt], the inhibition at 0.2 µM came out at 96% and 55 nM corresponded to half-maximal inhibition (IC50).

`CC1(/C=C/c2nc3cc(-c4ccccc4C(F)(F)F)ccc3[nH]2)CCOCC1` [Compound 66, (E)-2-[2-(4-Methyl-tetrahydro-pyran-4-yl)-vinyl]-5-(2-trifluoromethyl-phenyl)-1H-benzimidazole]: the inhibition at 0.2 µM stood at 101% and half-maximal inhibition (IC50) required 31 nM.

Turning to `CC1(/C=C/c2nc3cc(-c4c(C(F)(F)F)cccc4C(F)(F)F)ccc3[nH]2)CCOCC1` [Compound 67, (E)-5-(2,6-Bis-trifluoromethyl-phenyl)-2-[2-(4-methyl-tetrahydro-pyran-4-yl)-vinyl]-1H-benzimidazole], the inhibition at 0.2 µM amounted to 100% and 13 nM corresponded to half-maximal inhibition (IC50).

As to `C/C(=C\c1nc2cc(-c3ccccc3C(F)(F)F)ccc2[nH]1)C1CCCCC1` [Compound 69, (E)-2-(2-Cyclohexyl-propenyl)-5-(2-trifluoromethyl-phenyl)-1H-benzimidazole], the inhibition at 0.2 µM turned out to be 102% and the IC50 worked out at 11 nM.
